From article PMC5515969, “Effects of 31 FDA approved small-molecule kinase inhibitors on isolated rat liver mitochondria” (Archives of Toxicology, 2016)
Where two headings read alike, the source gives them in different places.

Legend:
[1] = test system: RCC V; assay: RCC V activity in submitochondrial particles; assay type: biochemical, rat; settings: relative to DMSO treated samples; on RCC V at 5XCmax: key: 0 indicates that the drug had no effects (negative)
Procedure: (§1) KIs were incubated with submitochondrial particles (1 mg/ml) for 15 min and then RCC I–V activities measured. […] The activities of DMSO-treated samples (controls) were set as 1. […] The difference between the activity from rotenone-containing buffer and rotenone-absent buffer was considered as RCC I activity. […] For measuring RCC I/V and II activity, the changes in absorbance at 340 and 600 nm, respectively, were determined every 1 min for 6 min. For measuring RCC III and RCC IV, the changes in absorbance at 550 nm were measured every 10 s for 2 min.

[2] = biological target: T1, RCC II (Rattus norvegicus, UniProt P21913+Q641Z9+Q6PCT8+Q920L2); assay: RCC II activity in submitochondrial particles; assay type: biochemical; parameters: key: activity relative to DMSO-treated controls (control set as 1 = 100%); settings: relative to DMSO treated samples
T1 construct: Submitochondrial particles were prepared by subjecting the intact mitochondria to three successive freeze–thaw cycles; from tissue; host or cells: rat liver mitochondria, used as submitochondrial particles
Procedure: as §1

[3] = test system: RCC IV; assay: RCC IV activity in submitochondrial particles; assay type: biochemical, rat; parameters: key to RCC IV at 50XCmax / RCC IV at 100XCmax: activity relative to DMSO-treated controls (control set as 1 = 100%); settings: 50XCmax; relative to DMSO treated samples; in %
Procedure: as §1

[4] = parameters: method as in product labeling; settings: ref product labeling; cited from earlier work
[5] = test system: isolated rat liver mitochondria; assay: Mitochondrial ROS production (CM-H2DCFDA); settings: DMSO treated samples set as 1
[6] = test system: isolated rat liver mitochondria; settings: positive control alamethicin treated samples
[7] = test system: isolated rat liver mitochondria; assay: Mitochondrial inner membrane potential (MMP), Rhodamine 123; assay type: biochemical; settings: difference in signal between KI and DMSO treated samples at the end of experiments
Text: Fig. 3 KI effects on mitochondrial inner membrane potential (MMP). […] In a, c, data are means and standard derivations from three separate experiments. *p < 0.05 as compared to DMSO-treated samples at the end of experiments. In b, data are means of two independent experiments

[8] = test system: RCC III; assay: RCC III activity in submitochondrial particles; assay type: biochemical, rat; parameters: key to RCC III at 100XCmax: activity relative to DMSO-treated controls (control set as 1 = 100%); settings: 100XCmax; relative to DMSO treated samples
Procedure: as §1

[9] = test system: RCC I; assay: RCC I activity in submitochondrial particles; assay type: biochemical, rat; parameters: key to RCC I at 10XCmax / RCC I at 100XCmax / RCC I at 50XCmax / RCC I at 30XCmax / RCC I at 20XCmax: activity relative to DMSO-treated controls (control set as 1 = 100%); settings: 10XCmax; relative to DMSO treated samples
Procedure: as §1

[10] = test system: isolated rat liver mitochondria; assay: Mitochondrial swelling (absorbance at 535 nm); assay type: biochemical; settings: difference in signal between KI and DMSO treated samples at the end of experiments; on Swelling 5XCmax: key: 0 indicates that the drug had no effects (negative)
[11] = cited from earlier work
[12] = test system: isolated rat liver mitochondria; assay: Mitochondrial oxygen consumption (glutamate/malate or succinate driven, state 4 and state 3); assay type: biochemical; settings: DMSO treated samples set as 1; on State 3 respiration driven by succinate at 10XCmax: key: 0 indicates that the drug had no effects (negative); on State 3 respiration driven by succinate at 1XCmax: key: 0 indicates that the drug had no effects (negative)
Procedure: (§2) Rats were anesthetized by an intraperitoneal injection of Nembutal and the liver perfused with PBS to remove the blood. The liver was then cut into small pieces and homogenized using a Dounce type homogenizer in the ice-cold isolation buffer (IB) containing 200 mM sucrose, 10 mM Tris-MOPS, 1 mM EGTA (pH 7.4). The sample was then centrifuged at 600g for 10 min. The supernatant was further centrifuged at 7500g for 10 min, and the pellets was washed once with the IB and centrifuged again at 7500g for 10 min to collect mitochondria. […] Before drug treatment, the protein concentration was adjusted to 1 mg/ml using appropriate buffer. […] Briefly, mitochondrial and cytosolic fractions from four different preparations using four rats were diluted using the Laemmli protein loading buffer and subject to SDS-PAGE with 4–20% gradient gels. The proteins were blotted to PVDF membranes and detected using antibodies against GAPDH, ATP5A, UQCRC2, SDHB, and NDUFB8.
(§3) The aliquoted stock solutions were kept for less than one month and each tube was used only once. The KIs were added to the mitochondria at 1:1000 dilutions. […] The Cmax data were from clinical trials which used FDA recommend dosages, route of administration, and duration. […] The final concentration of DMSO for drug treatment was always 0.1%, and control treatments were 0.1% DMSO.
Briefly, mitochondria were incubated with the KIs for 5 min, and then split evenly and loaded to the sample tubes of two Oxytherm systems (Hansatech Instruments Ltd), with one system used for measuring glutamate/malate driven respiration and the other succinate-driven respiration, both of which were defined as state 4 respiration. After 3 min, ADP was added to measure the maximal oxygen consumption rate, which was defined as state 3 respiration. […] The oxygen consumption rate of DMSO-treated samples (controls) was set as 1.

[13] = test system: isolated rat liver mitochondria; assay: Mitochondrial toxicity, any endpoint, intact mitochondria and submitochondrial particles; assay type: biochemical; settings: concentrations equal to 100-fold Cmax
Procedure: as §2, §3

[14] = cited from earlier work; remark: listed apart in the source

T1 sequence (Q920L2 35-656): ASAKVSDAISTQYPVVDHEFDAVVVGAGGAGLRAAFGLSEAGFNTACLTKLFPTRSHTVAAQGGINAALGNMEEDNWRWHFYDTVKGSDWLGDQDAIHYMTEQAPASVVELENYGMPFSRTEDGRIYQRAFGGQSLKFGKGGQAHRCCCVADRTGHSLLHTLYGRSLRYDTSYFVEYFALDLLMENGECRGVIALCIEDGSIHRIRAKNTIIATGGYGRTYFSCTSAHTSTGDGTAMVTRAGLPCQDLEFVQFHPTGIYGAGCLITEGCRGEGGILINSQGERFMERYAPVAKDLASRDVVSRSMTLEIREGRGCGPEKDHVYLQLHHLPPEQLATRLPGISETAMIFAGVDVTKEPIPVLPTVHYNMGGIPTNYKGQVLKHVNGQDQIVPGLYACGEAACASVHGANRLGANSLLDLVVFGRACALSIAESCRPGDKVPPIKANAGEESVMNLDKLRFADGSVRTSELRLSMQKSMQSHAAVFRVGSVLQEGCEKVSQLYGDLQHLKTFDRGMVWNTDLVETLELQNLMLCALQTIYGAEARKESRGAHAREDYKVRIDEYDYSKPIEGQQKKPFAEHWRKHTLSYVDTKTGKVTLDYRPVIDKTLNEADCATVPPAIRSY
T1 sequence (P21913 31-282): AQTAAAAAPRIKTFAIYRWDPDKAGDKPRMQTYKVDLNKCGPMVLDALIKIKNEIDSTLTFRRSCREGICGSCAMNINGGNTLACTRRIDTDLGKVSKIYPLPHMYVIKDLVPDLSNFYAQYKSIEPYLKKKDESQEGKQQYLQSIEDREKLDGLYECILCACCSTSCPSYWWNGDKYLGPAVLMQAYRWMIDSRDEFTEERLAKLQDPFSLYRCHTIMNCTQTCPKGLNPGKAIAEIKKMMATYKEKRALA
T1 sequence (Q641Z9 1-169): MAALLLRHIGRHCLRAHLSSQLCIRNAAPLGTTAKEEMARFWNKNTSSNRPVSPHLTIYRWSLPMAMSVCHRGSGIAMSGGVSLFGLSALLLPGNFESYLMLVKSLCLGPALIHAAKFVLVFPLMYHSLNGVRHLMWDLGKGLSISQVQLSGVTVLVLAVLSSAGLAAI
T1 sequence (Q6PCT8 57-159): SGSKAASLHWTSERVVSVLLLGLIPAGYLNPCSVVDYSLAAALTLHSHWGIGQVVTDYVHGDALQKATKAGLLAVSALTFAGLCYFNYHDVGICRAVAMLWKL

COc1cc2ncnc(Nc3ccc(F)c(Cl)c3)c2cc1OCCCN1CCOCC1 [Gefitinib]
0.27 µM: Cmax ([11]; human therapeutic Cmax at FDA recommended dosages, ref product labeling and drug approval packages at the official FDA website) | Cmax ([11]; read-out: Cmax at µM, therapeutic maximal blood concentration, ref product labeling)
0: RCC V at 5XCmax ([1]; 5XCmax) | RCC V at 50XCmax ([1]; 50XCmax) | RCC II at 1.0XCmax ([2]; 1.0XCmax) | RCC II at 2.5XCmax ([2]; 2.5XCmax) | RCC II at 5XCmax ([2]; 5XCmax) | RCC II at 10XCmax ([2]; 10XCmax) | RCC II at 20XCmax ([2]; 20XCmax) | RCC II at 30XCmax ([2]; 30XCmax) | RCC II at 50XCmax ([2]; 50XCmax) | RCC II at 100XCmax ([2]; 100XCmax) | RCC IV at 50XCmax [3] | Potential for cardiotoxicity (based on labeling) [4] | ROS measured by CM-H2DCFDA at 1XCmax ([5]; 1XCmax) | ROS measured by CM-H2DCFDA at 2.5XCmax ([5]; 2.5XCmax) | ROS measured by CM-H2DCFDA at 5XCmax ([5]; 5XCmax) | ROS measured by CM-H2DCFDA at 10XCmax ([5]; 10XCmax) | ROS measured by CM-H2DCFDA at 20XCmax ([5]; 20XCmax) | ROS measured by CM-H2DCFDA at 30XCmax ([5]; 30XCmax) | ROS measured by CM-H2DCFDA at 50XCmax ([5]; 50XCmax) | ROS measured by CM-H2DCFDA at 100XCmax ([5]; 100XCmax) | Cytochrome c release 1XCmax ([6]; 1XCmax) | Cytochrome c release 2.5XCmax ([6]; 2.5XCmax) | Cytochrome c release 5XCmax ([6]; 5XCmax) | Cytochrome c release 10XCmax ([6]; 10XCmax) | Cytochrome c release 20XCmax ([6]; 20XCmax) | Cytochrome c release 30XCmax ([6]; 30XCmax) | Cytochrome c release 50XCmax ([6]; 50XCmax) | Cytochrome c release 100XCmax ([6]; 100XCmax) | MMP measured by Rhodamine 123 at 1XCmax ([7]; 1XCmax) | MMP measured by Rhodamine 123 at 2.5XCmax ([7]; 2.5XCmax) | MMP measured by Rhodamine 123 at 5XCmax ([7]; 5XCmax) | MMP measured by Rhodamine 123 at 10XCmax ([7]; 10XCmax) | MMP measured by Rhodamine 123 at 20XCmax ([7]; 20XCmax) | MMP measured by Rhodamine 123 at 30XCmax ([7]; 30XCmax) | MMP measured by Rhodamine 123 at 50XCmax ([7]; 50XCmax) | MMP measured by Rhodamine 123 at 100XCmax ([7]; 100XCmax) | RCC III at 100XCmax [8] | RCC I at 10XCmax [9] | Swelling 1XCmax ([10]; 1XCmax) | Swelling 2.5XCmax ([10]; 2.5XCmax) | Swelling 5XCmax ([10]; 5XCmax) | Swelling 10XCmax ([10]; 10XCmax) | Swelling 20XCmax ([10]; 20XCmax) | Swelling 30XCmax ([10]; 30XCmax) | Swelling 50XCmax ([10]; 50XCmax) | Swelling 100XCmax ([10]; 100XCmax) | State 3 respiration driven by succinate at 1XCmax ([12]; 1XCmax) | State 4 respiration driven by succinate at 1XCmax ([12]; 1XCmax) | State 3 respiration driven by succinate at 2.5XCmax ([12]; 2.5XCmax) | State 4 respiration driven by succinate at 2.5XCmax ([12]; 2.5XCmax) | State 3 respiration driven by succinate at 5XCmax ([12]; 5XCmax) | State 4 respiration driven by succinate at 5XCmax ([12]; 5XCmax) | State 3 respiration driven by succinate at 10XCmax ([12]; 10XCmax) | State 4 respiration driven by succinate at 10XCmax ([12]; 10XCmax) | State 3 respiration driven by succinate at 20XCmax ([12]; 20XCmax) | State 4 respiration driven by succinate at 20XCmax ([12]; 20XCmax) | State 3 respiration driven by succinate at 30XCmax ([12]; 30XCmax) | State 4 respiration driven by succinate at 30XCmax ([12]; 30XCmax) | State 3 respiration driven by succinate at 50XCmax ([12]; 50XCmax) | State 4 respiration driven by succinate at 50XCmax ([12]; 50XCmax) | State 3 respiration driven by succinate at 100XCmax ([12]; 100XCmax) | State 4 respiration driven by succinate at 100XCmax ([12]; 100XCmax)
122 ng/mL: Cmax ([11]; therapeutic maximal blood concentration, ref product labeling)

CS(=O)(=O)CCNCc1ccc(-c2ccc3ncnc(Nc4ccc(OCc5cccc(F)c5)c(Cl)c4)c3c2)o1 [Lapatinib]
mitochondrial injury was induced: mitochondrial injury [13]
1: DILI potential (based on labeling) ([14]; ref FDA product labeling)
BBW: fatal DILI: labeling for DILI ([14]; in vivo)
